Results as given in publication PMC5428509, “Irreversible inhibition of BTK kinase by a novel highly selective inhibitor CHMFL-BTK-11 suppresses inflammatory response in rheumatoid arthritis model” (Scientific Reports, 2017).

Experiments:
Assay in all cases: biochemical
Set-up in all cases: KinomeScan competition binding panel (DiscoveRx), percent of control at 1 uM
Conditions in all cases: read-out: Percent Control
[1] = biological target: CAMK1 (Homo sapiens, UniProt Q14012)
In short: (§1)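 Selectivity profiled across 456 kinases/mutants by KinomeScan binding technology.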

[2] = biological target: CDKL1 (Homo sapiens, UniProt Q00532)
Chain of CDKL1 (Q00532 whole entry): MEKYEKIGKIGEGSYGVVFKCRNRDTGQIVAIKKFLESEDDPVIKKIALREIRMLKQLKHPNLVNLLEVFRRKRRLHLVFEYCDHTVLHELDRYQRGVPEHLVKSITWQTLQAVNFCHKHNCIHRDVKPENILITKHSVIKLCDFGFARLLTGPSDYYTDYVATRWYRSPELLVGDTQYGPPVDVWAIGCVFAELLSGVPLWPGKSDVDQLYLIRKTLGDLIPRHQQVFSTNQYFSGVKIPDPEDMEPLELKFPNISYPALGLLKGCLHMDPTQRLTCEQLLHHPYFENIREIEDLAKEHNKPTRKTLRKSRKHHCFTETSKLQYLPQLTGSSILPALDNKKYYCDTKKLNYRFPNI
In short: as §1

[3] = biological target: T1, DCAMKL2 (Homo sapiens, UniProt Q8N568)
T1 construct: gene DCLK2
In short: as §1

[4] = biological target: ERN1 (Homo sapiens, UniProt O75460)
In short: as §1

[5] = biological target: T2, ASK2 (Homo sapiens, UniProt O95382)
T2 construct: gene MAP3K6
In short: as §1

[6] = biological target: MAST1 (Homo sapiens, UniProt Q9Y2H9)
Chain of MAST1 (Q9Y2H9 whole entry): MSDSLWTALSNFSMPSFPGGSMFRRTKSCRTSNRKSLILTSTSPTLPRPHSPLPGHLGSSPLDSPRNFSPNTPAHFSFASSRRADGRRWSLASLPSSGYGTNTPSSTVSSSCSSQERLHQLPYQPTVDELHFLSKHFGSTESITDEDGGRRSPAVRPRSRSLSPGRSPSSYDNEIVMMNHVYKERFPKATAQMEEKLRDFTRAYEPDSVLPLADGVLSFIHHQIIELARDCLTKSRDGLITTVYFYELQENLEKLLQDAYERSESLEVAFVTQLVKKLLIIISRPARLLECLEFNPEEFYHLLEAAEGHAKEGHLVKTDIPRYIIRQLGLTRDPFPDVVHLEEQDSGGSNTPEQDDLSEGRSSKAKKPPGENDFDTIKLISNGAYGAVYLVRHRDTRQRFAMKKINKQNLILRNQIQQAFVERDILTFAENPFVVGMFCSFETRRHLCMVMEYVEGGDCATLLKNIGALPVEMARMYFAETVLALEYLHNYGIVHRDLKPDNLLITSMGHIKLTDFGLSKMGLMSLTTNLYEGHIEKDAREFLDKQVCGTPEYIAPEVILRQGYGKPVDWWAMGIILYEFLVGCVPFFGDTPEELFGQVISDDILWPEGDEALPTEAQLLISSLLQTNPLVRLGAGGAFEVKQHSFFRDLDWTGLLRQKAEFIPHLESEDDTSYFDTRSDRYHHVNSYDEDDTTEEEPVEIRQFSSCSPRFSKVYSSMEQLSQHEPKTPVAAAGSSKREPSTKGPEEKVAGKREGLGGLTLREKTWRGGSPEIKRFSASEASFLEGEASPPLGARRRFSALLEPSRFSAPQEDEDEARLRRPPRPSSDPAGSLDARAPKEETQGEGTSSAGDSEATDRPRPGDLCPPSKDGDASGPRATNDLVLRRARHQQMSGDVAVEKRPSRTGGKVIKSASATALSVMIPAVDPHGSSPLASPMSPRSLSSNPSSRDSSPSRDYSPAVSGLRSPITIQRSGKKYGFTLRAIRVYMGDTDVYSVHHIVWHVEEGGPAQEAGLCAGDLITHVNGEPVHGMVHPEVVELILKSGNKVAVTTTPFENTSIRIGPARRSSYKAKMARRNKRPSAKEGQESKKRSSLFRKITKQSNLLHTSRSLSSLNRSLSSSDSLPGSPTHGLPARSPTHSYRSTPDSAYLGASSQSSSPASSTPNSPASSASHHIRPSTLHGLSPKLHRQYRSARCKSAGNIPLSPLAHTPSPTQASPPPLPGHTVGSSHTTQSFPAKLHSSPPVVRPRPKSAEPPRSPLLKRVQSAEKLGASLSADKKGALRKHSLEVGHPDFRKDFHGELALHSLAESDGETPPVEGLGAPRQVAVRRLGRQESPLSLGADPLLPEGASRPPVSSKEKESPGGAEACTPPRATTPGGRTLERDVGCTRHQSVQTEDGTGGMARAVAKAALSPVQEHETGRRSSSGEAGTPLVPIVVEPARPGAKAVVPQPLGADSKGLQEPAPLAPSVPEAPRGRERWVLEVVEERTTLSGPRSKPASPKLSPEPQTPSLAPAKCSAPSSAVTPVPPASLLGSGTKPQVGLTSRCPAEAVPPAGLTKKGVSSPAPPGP
In short: as §1

[7] = biological target: EGFR(L747-S752del, P753S) (Homo sapiens, UniProt P00533, DEL747-752/P753S)
In short: as §1

[8] = biological target: PIK3CA (Homo sapiens, UniProt P42336)
In short: as §1

[9] = biological target: T3, MST3 (Homo sapiens, UniProt Q9Y6E0)
T3 construct: gene STK24
In short: as §1

[10] = biological target: SRPK2 (Homo sapiens, UniProt P78362)
Chain of SRPK2 (P78362 whole entry): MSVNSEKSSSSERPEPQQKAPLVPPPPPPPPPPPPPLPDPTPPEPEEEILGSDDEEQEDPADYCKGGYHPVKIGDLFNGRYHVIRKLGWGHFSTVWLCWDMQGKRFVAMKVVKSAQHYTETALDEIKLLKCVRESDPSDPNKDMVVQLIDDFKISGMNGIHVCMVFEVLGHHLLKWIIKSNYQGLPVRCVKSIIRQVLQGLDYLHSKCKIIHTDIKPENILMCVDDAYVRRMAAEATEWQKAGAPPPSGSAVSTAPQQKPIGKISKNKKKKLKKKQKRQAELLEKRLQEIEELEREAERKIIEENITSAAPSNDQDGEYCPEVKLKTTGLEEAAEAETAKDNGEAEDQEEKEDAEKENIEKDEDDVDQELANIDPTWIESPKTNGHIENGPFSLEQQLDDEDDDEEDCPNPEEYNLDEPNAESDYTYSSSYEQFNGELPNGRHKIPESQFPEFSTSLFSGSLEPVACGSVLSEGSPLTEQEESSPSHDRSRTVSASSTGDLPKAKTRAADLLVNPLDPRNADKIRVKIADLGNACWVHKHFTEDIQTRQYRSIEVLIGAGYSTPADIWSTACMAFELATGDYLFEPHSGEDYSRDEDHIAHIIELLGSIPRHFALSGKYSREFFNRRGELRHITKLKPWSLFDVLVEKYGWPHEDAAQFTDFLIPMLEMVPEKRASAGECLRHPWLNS
In short: as §1

[11] = biological target: CSNK1G1 (Homo sapiens, UniProt Q9HCP0)
Chain of CSNK1G1 (Q9HCP0 whole entry): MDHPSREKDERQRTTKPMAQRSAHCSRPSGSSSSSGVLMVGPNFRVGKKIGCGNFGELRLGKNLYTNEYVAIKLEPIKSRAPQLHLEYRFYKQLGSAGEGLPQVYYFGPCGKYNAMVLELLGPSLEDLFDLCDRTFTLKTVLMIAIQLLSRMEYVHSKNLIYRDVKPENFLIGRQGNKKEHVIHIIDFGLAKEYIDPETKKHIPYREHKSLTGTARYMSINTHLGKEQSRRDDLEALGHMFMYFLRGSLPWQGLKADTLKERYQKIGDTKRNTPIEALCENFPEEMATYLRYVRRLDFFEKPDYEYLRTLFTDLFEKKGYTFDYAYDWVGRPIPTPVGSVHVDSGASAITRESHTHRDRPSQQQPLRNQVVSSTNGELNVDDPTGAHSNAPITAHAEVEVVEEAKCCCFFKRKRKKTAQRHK
In short: as §1

[12] = biological target: T4, MEK3 (Homo sapiens, UniProt P46734)
T4 construct: gene MAP2K3
T4 sequence (P46734 whole entry): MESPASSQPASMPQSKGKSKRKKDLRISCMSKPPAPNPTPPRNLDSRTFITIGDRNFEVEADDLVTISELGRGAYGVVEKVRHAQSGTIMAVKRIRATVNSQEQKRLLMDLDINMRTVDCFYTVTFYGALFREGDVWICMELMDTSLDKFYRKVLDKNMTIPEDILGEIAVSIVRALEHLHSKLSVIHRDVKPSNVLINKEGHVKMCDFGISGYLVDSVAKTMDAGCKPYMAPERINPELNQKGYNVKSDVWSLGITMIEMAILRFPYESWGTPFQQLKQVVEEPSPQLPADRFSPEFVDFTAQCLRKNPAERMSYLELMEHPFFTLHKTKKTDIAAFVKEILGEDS
In short: as §1

[13] = biological target: CLK2 (Homo sapiens, UniProt P49760)
Chain of CLK2 (P49760 whole entry): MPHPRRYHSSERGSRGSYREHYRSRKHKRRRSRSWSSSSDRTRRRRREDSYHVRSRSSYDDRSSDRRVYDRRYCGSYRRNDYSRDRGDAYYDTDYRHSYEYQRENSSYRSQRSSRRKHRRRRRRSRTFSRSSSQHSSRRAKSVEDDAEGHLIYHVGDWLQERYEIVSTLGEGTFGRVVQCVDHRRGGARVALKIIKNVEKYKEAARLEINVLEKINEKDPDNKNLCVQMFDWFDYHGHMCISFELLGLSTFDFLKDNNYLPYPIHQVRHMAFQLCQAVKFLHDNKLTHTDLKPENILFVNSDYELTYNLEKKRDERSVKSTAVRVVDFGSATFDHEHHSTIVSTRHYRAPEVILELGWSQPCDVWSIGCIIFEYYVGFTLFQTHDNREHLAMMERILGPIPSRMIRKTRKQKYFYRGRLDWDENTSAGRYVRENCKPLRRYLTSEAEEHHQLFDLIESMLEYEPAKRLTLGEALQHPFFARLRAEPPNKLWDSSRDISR
In short: as §1

[14] = biological target: ROS1 (Homo sapiens, UniProt P08922)
In short: as §1

[15] = biological target: FRK (Homo sapiens, UniProt P42685)
In short: as §1

[16] = biological target: T5, MINK (Homo sapiens, UniProt Q8N4C8)
T5 construct: gene MINK1
In short: as §1

[17] = biological target: CDK3 (Homo sapiens, UniProt Q00526)
In short: as §1

[18] = biological target: PLK2 (Homo sapiens, UniProt Q9NYY3)
In short: as §1

[19] = biological target: ACVRL1 (Homo sapiens, UniProt P37023)
In short: as §1

[20] = biological target: T6, ABL1(Y253F)-phosphorylated (Homo sapiens, UniProt P00519, Y253F)
T6 construct: phosphorylated
In short: as §1

[21] = biological target: MST1R (Homo sapiens, UniProt Q04912)
In short: as §1

[22] = biological target: T7, PCTK2 (Homo sapiens, UniProt Q00537)
T7 construct: gene CDK17
T7 sequence (Q00537 whole entry): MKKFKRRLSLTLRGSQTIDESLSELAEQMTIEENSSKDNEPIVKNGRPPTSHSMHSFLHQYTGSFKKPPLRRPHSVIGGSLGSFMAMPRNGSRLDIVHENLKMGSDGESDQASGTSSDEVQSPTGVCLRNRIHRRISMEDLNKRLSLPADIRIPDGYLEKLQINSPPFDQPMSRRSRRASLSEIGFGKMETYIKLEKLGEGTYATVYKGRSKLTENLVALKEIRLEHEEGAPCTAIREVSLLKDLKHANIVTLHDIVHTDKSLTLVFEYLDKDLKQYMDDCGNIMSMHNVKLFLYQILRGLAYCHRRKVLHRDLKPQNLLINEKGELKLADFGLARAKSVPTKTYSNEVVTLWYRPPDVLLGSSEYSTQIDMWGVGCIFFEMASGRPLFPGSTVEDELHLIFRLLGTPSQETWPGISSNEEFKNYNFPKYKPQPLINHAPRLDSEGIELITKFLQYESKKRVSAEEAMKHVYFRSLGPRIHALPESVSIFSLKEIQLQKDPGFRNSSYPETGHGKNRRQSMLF
In short: as §1

[23] = biological target: FER (Homo sapiens, UniProt P16591)
In short: as §1

[24] = biological target: T8, BIKE (Homo sapiens, UniProt Q9NSY1)
T8 construct: gene BMP2K
In short: as §1

[25] = biological target: BMPR1B (Homo sapiens, UniProt O00238)
Chain of BMPR1B (O00238 whole entry): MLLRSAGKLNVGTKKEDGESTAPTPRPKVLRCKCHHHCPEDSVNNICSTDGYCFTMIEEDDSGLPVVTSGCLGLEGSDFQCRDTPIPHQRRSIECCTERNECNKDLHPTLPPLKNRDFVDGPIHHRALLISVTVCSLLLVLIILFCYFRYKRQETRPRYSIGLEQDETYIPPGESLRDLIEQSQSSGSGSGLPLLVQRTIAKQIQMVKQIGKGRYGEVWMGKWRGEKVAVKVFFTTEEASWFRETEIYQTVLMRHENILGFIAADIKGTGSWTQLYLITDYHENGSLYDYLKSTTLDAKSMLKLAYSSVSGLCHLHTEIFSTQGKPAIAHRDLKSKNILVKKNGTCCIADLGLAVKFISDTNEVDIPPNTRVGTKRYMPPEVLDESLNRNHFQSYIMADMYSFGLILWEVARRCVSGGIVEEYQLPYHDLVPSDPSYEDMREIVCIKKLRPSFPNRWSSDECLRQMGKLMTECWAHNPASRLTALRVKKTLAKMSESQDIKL
In short: as §1

## C=CC(=O)Nc1cc(-n2c(=O)ccc3cnc4ccc(-n5cccn5)cc4c32)ccc1C [CHMFL-BTK-11]
[1]
  remaining binding at 1 µM: 98%
[2]
  remaining binding at 1 µM: 93%
[3]
  remaining binding at 1 µM: 100%
[4]
  remaining binding at 1 µM: 76%
[5]
  remaining binding at 1 µM: 100%
[6]
  remaining binding at 1 µM: 100%
[7]
  remaining binding at 1 µM: 86%
[8]
  remaining binding at 1 µM: 100%
[9]
  remaining binding at 1 µM: 100%
[10]
  remaining binding at 1 µM: 100%
[11]
  remaining binding at 1 µM: 100%
[12]
  remaining binding at 1 µM: 86%
[13]
  remaining binding at 1 µM: 100%
[14]
  remaining binding at 1 µM: 94%
[15]
  remaining binding at 1 µM: 100%
[16]
  remaining binding at 1 µM: 64%
[17]
  remaining binding at 1 µM: 100%
[18]
  remaining binding at 1 µM: 91%
[19]
  remaining binding at 1 µM: 90%
[20]
  remaining binding at 1 µM: 89%
[21]
  remaining binding at 1 µM: 98%
[22]
  remaining binding at 1 µM: 94%
[23]
  remaining binding at 1 µM: 98%
[24]
  remaining binding at 1 µM: 91%
[25]
  remaining binding at 1 µM: 97%
